Test results as given in paper PMC4303209, “A novel phosphatidylinositol 3-kinase (PI3K) inhibitor directs a potent FOXO-dependent, p53-independent cell cycle arrest phenotype characterized by the differential induction of a subset of FOXO-regulated genes” (Breast Cancer Research : BCR, 2014).

Tested on: MCF-7 breast cancer cells
Test: Microarray gene expression analysis (Agilent whole human genome 4 x 44K; compound vs DMSO, LIMMA log2 fold change)
Assay type: cell-based

Compound: Oc1cccc(-c2nc(N3CCOCC3)c3oc4ncccc4c3n2)c1 [PI-103]
- EYA1 log2FC (gene EYA1 (2138), apoptosis genes): 0.027
- log2FC EYA1 (gene EYA1 (Gene 2138), cell cycle genes): 0.027
- FABP1 log2FC (gene FABP1 (2168), apoptosis genes): -0.014
- FAIM2 log2FC (gene FAIM2 (23017), apoptosis genes): 0.077
- FAM3B log2FC (gene FAM3B (54097), apoptosis genes): -0.110
- FAM32A log2FC (gene FAM32A (26017), apoptosis genes): -0.300
- log2FC FAM32A (gene FAM32A (Gene 26017), cell cycle genes): -0.30
- log2FC (gene FAM58A (Gene 92002), cell cycle genes): 0.17
- FAS log2FC (gene FAS (355), apoptosis genes): -0.278
- log2FC (gene FBXL15 (Gene 79176), cell cycle genes): 0.25
- log2FC FGFR1OP (gene FGFR1OP (Gene 11116), cell cycle genes): -0.20
- FIS1 log2FC (gene FIS1 (51024), apoptosis genes): 0.161
- FKSG2 log2FC (gene FKSG2 (59347), apoptosis genes): -0.076
- log2FC (gene FMN2 (Gene 56776), cell cycle genes): 0.00262
- FOXB1 log2FC (gene FOXB1 (27023), apoptosis genes): -0.433
- log2FC (gene FSD1 (Gene 79187), cell cycle genes): -0.09
- GADD45G log2FC (gene GADD45G (10912), apoptosis genes): -0.195
- GAPDH log2FC (gene GAPDH (2597), apoptosis genes): 0.013
- log2FC (gene GAS2L1 (Gene 10634), cell cycle genes): -0.26
- log2FC GAS2L2 (gene GAS2L2 (Gene 246176), cell cycle genes): -0.00222
- GAS6 log2FC (gene GAS6 (2621), apoptosis genes): -0.103
- GATA6 log2FC (gene GATA6 (2627), apoptosis genes): 0.052
- log2FC GATA6 (gene GATA6 (Gene 2627), cell cycle genes): 0.05
- GCG log2FC (gene GCG (2641), apoptosis genes): 0.035
- GCLM log2FC (gene GCLM (2730), apoptosis genes): -0.246
- GCM2 log2FC (gene GCM2 (9247), apoptosis genes): -0.063
- log2FC (gene GEM (Gene 2669), cell cycle genes): 0.84
- GFRAL log2FC (gene GFRAL (389400), apoptosis genes): -0.028
- GHRL log2FC (gene GHRL (51738), apoptosis genes): -0.060
- GIMAP5 log2FC (gene GIMAP5 (55340), apoptosis genes): 0.028
- GJB6 log2FC (gene GJB6 (10804), apoptosis genes): 0.090
- log2FC (gene GOLGA2 (Gene 2801), cell cycle genes): 0.24
- log2FC (gene GORASP1 (Gene 64689), cell cycle genes): 0.05
- log2FC (gene GORASP2 (Gene 26003), cell cycle genes): -0.48
- GPI log2FC (gene GPI (2821), apoptosis genes): 0.047
- GPR65 log2FC (gene GPR65 (8477), apoptosis genes): -0.016
- GRK1 log2FC (gene GRK1 (6011), apoptosis genes): -0.053
- log2FC (gene GTPBP8 (Gene 29083), cell cycle genes): 0.10
- log2FC (gene GTSE1 (Gene 51512), cell cycle genes): -0.33
- log2FC H1FOO (gene H1FOO (Gene 132243), cell cycle genes): 0.05
- HCLS1 log2FC (gene HCLS1 (3059), apoptosis genes): 0.112
- log2FC (gene HELLS (Gene 3070), cell cycle genes): 0.14
- HIPK3 log2FC (gene HIPK3 (10114), apoptosis genes): -0.044
- log2FC HORMAD2 (gene HORMAD2 (Gene 150280), cell cycle genes): 0.09
- log2FC HPGD (gene HPGD (Gene 3248), cell cycle genes): 0.065
- HPN log2FC (gene HPN (3249), apoptosis genes): -0.076
- HTRA2 log2FC (gene HTRA2 (27429), apoptosis genes): 0.078
- log2FC HTRA2 (gene HTRA2 (Gene 27429), cell cycle genes): 0.08
- IFI6 log2FC (gene IFI6 (2537), apoptosis genes): 0.0043
- IFNA2 log2FC (gene IFNA2 (3440), apoptosis genes): 0.014
- IFNB1 log2FC (gene IFNB1 (3456), apoptosis genes): 0.022
- IL1A log2FC (gene IL1A (3552), apoptosis genes): -0.067
- IL2RA log2FC (gene IL2RA (3559), apoptosis genes): -0.038
- IL2RB log2FC (gene IL2RB (3560), apoptosis genes): -0.066
- IL12A log2FC (gene IL12A (3592), apoptosis genes): -0.262
- log2FC IL12A (gene IL12A (Gene 3592), cell cycle genes): -0.26
- IL12B log2FC (gene IL12B (3593), apoptosis genes): -0.023
- IL17A log2FC (gene IL17A (3605), apoptosis genes): 0.037
- IL19 log2FC (gene IL19 (29949), apoptosis genes): -0.032
- ILK log2FC (gene ILK (3611), apoptosis genes): -0.047
- log2FC ILKAP (gene ILKAP (Gene 80895), cell cycle genes): -0.08
- INSL6 log2FC (gene INSL6 (11172), apoptosis genes): 0.047
- ISL1 log2FC (gene ISL1 (3670), apoptosis genes): -0.142
- ITGA6 log2FC (gene ITGA6 (3655), apoptosis genes): -0.139
- ITGB2 log2FC (gene ITGB2 (3689), apoptosis genes): 0.148
- ITM2C log2FC (gene ITM2C (81618), apoptosis genes): 0.019
- log2FC KATNB1 (gene KATNB1 (Gene 10300), cell cycle genes): 0.26
- log2FC KCNA5 (gene KCNA5 (Gene 3741), cell cycle genes): -0.0139
- KDR log2FC (gene KDR (3791), apoptosis genes): -0.033
- log2FC (gene KIAA0101 (Gene 9768), cell cycle genes): 0.28
- KIAA1324 log2FC (gene KIAA1324 (57535), apoptosis genes): -0.031
- log2FC KIF2B (gene KIF2B (Gene 84643), cell cycle genes): -0.17
- log2FC (gene KIF13A (Gene 63971), cell cycle genes): 0.06
- log2FC (gene KIF23 (Gene 9493), cell cycle genes): 0.55
- log2FC KIF25 (gene KIF25 (Gene 3834), cell cycle genes): 0.00228
- KLF4 log2FC (gene KLF4 (9314), apoptosis genes): -0.178
- KRT20 log2FC (gene KRT20 (54474), apoptosis genes): -0.013
- LALBA log2FC (gene LALBA (3906), apoptosis genes): -0.012
- log2FC LATS1 (gene LATS1 (Gene 9113), cell cycle genes): 0.0843
- log2FC (gene LATS2 (Gene 26524), cell cycle genes): 0.38
- LCMT1 log2FC (gene LCMT1 (51451), apoptosis genes): 0.003
- LCN2 log2FC (gene LCN2 (3934), apoptosis genes): 0.063
- log2FC (gene LEMD3 (Gene 23592), cell cycle genes): 0.29
- LGALS1 log2FC (gene LGALS1 (3956), apoptosis genes): 0.053
- LGALS12 log2FC (gene LGALS12 (85329), apoptosis genes): 0.050
- LGALS14 log2FC (gene LGALS14 (56891), apoptosis genes): 0.104
- log2FC (gene LMNA (Gene 4000), cell cycle genes): -0.0134
- LRP1 log2FC (gene LRP1 (4035), apoptosis genes): 0.043
- log2FC (gene LRP6 (Gene 4040), cell cycle genes): -0.12
- log2FC (gene LSM11 (Gene 134353), cell cycle genes): 0.09
- LTA log2FC (gene LTA (4049), apoptosis genes): 0.136
- LTF log2FC (gene LTF (4057), apoptosis genes): 0.014
- MAD2L1 log2FC (gene MAD2L1 (4085), apoptosis genes): -0.145
- MAEL log2FC (gene MAEL (84944), apoptosis genes): -0.172
- log2FC MAEL (gene MAEL (Gene 84944), cell cycle genes): -0.17
- MAGED1 log2FC (gene MAGED1 (9500), apoptosis genes): -0.047
- MAGEH1 log2FC (gene MAGEH1 (28986), apoptosis genes): 0.025
- MAP2K5 log2FC (gene MAP2K5 (5607), apoptosis genes): -0.018
- MAP2K7 log2FC (gene MAP2K7 (5609), apoptosis genes): 0.032
- log2FC (gene MAP3K8 (Gene 1326), cell cycle genes): 0.0265
- log2FC (gene MAP4 (Gene 4134), cell cycle genes): -0.23
- MAPK1 log2FC (gene MAPK1 (5594), apoptosis genes): 0.017
- log2FC (gene MAPK4 (Gene 5596), cell cycle genes): -0.08
- log2FC (gene MAPK6 (Gene 5597), cell cycle genes): 0.12
- MAPK8 log2FC (gene MAPK8 (5599), apoptosis genes): -0.015
- MAPK9 log2FC (gene MAPK9 (5601), apoptosis genes): -0.052
- log2FC (gene MAPK12 (Gene 6300), cell cycle genes): -0.18
- MAPT log2FC (gene MAPT (4137), apoptosis genes): 0.031
- log2FC MCM4 (gene MCM4 (Gene 4173), cell cycle genes): -0.12
- MDM4 log2FC (gene MDM4 (4194), apoptosis genes): -0.144
- log2FC (gene MED25 (Gene 81857), cell cycle genes): -0.19
- MKL1 log2FC (gene MKL1 (57591), apoptosis genes): 0.300
- MKNK1 log2FC (gene MKNK1 (8569), apoptosis genes): 0.102
- MNDA log2FC (gene MNDA (4332), apoptosis genes): 0.077
- MSX2 log2FC (gene MSX2 (4488), apoptosis genes): 0.052
- MT3 log2FC (gene MT3 (4504), apoptosis genes): -0.313
- log2FC (gene MYOG (Gene 4656), cell cycle genes): -0.13
- NACA log2FC (gene NACA (4666), apoptosis genes): 0.038
- log2FC NANOG (gene NANOG (Gene 79923), cell cycle genes): -0.07
- log2FC (gene NASP (Gene 4678), cell cycle genes): 0.16
- NCF1 log2FC (gene NCF1 (653361), apoptosis genes): 0.093
- NCF2 log2FC (gene NCF2 (4688), apoptosis genes): -0.014
- log2FC (gene NCOR1 (Gene 9611), cell cycle genes): 0.25
- NDUFS3 log2FC (gene NDUFS3 (4722), apoptosis genes): 0.064
- NEURL log2FC (gene NEURL (9148), apoptosis genes): 0.053
- NEUROD1 log2FC (gene NEUROD1 (4760), apoptosis genes): 0.039
- log2FC NEUROG1 (gene NEUROG1 (Gene 4762), cell cycle genes): -0.44
- NLE1 log2FC (gene NLE1 (54475), apoptosis genes): 0.195
- NME6 log2FC (gene NME6 (10201), apoptosis genes): -0.015
- log2FC NME6 (gene NME6 (Gene 10201), cell cycle genes): -0.0153
- NOS1AP log2FC (gene NOS1AP (9722), apoptosis genes): 0.021
- NOTCH1 log2FC (gene NOTCH1 (4851), apoptosis genes): -0.008
- NOX5 log2FC (gene NOX5 (79400), apoptosis genes): 0.00161
- log2FC NOX5 (gene NOX5 (Gene 79400), cell cycle genes): 0.00161
- NTRK1 log2FC (gene NTRK1 (4914), apoptosis genes): 0.391
- log2FC (gene NUMA1 (Gene 4926), cell cycle genes): -0.09
- log2FC (gene NUP153 (Gene 9972), cell cycle genes): -0.34
- log2FC NUP155 (gene NUP155 (Gene 9631), cell cycle genes): -0.14
- log2FC (gene NUP188 (Gene 23511), cell cycle genes): -0.16
- NUPR1 log2FC (gene NUPR1 (26471), apoptosis genes): 0.072
- OSR1 log2FC (gene OSR1 (130497), apoptosis genes): -0.027
- P4HB log2FC (gene P4HB (5034), apoptosis genes): 0.036
- log2FC (gene PA2G4 (Gene 5036), cell cycle genes): -0.51
- PAFAH2 log2FC (gene PAFAH2 (5051), apoptosis genes): -0.020
- PAK6 log2FC (gene PAK6 (56924), apoptosis genes): 0.142
- log2FC PAK6 (gene PAK6 (Gene 56924), cell cycle genes): 0.14
- log2FC (gene PAPD5 (Gene 64282), cell cycle genes): 0.31
- PARK7 log2FC (gene PARK7 (11315), apoptosis genes): 0.018
- PAX2 log2FC (gene PAX2 (5076), apoptosis genes): 0.009
- log2FC PCNA (gene PCNA (Gene 5111), cell cycle genes): -0.28
- PCSK9 log2FC (gene PCSK9 (255738), apoptosis genes): -0.221
- log2FC PDCD2L (gene PDCD2L (Gene 84306), cell cycle genes): -0.12
- PDCD5 log2FC (gene PDCD5 (9141), apoptosis genes): -0.049
- PDCL3 log2FC (gene PDCL3 (79031), apoptosis genes): -0.222
- PDE1B log2FC (gene PDE1B (5153), apoptosis genes): 0.019
- PDE3A log2FC (gene PDE3A (5139), apoptosis genes): 0.00129
- log2FC PDE3A (gene PDE3A (Gene 5139), cell cycle genes): 0.00129
